Experimental data published in patent publication US20220249538A1, “TREATMENT AGENT FOR SEX HORMONE-INSENSITIVE GREB1-POSITIVE TUMORS” (OSAKA UNIVERSITY, priority 2019, published 2022).
d = 2'-deoxy (DNA); r = 2'-OH (RNA)

Key:
MCF7 = assay: mRNA expression in MCF7 cells by real-time PCR; format: cell-based, human
[1] = system: mouse fetal liver cells (BMEL); assay: mRNA expression in BMEL cells by real-time PCR; format: cell-based; settings: CHIR99021 final concentration 5 μM
[2] = system: HLE, SNU-387 SNU-449, and Huh7; assay: mRNA expression in hepatocellular cancer cells after CHIR99021 by real-time PCR; format: cell-based, human; settings: SNU-387, SNU-449, Huh7, CHIR99021 final concentration 5 μM
Huh6 cells = assay: mRNA expression in Huh6 cells by real-time PCR; format: cell-based, human; settings: as in mRNA expression of Axin2
Experimental: Next, the mechanism for regulating expression of GREB1 in hepatoblastoma by YAP and c-Met was investigated. […] However, in Huh6 cells and HepG2 cells, knockdown of YAP/TAZ had no effect on expression of GREB1 (see b of FIG. 13). Further, when Huh6 cells was treated with CHIR99021, or treated with XMU-MP1, which has an inhibitory effect on Mst1/2 kinase and is an activator of YAP, or treated with CHIR99021 and XMU-MP1 in combination, mRNA expression of GREB1 was suppressed as in mRNA expression of Axin2 (see c of FIG. 13).

HepG2 cells [3] = assay: mRNA (real-time PCR) and protein (lysate probing) expression in HepG2 cells; format: cell-based, human
Experimental: (§1) Using RNAiMAX (Life Technologies/Thermo Fisher Scientific), HepG2 cells, Huh6 cells, Hep3B cells, JHH7 cells, and SKMEL28 cells were each transfected with each siRNA (10 nm). In experiments, the cells were used from 48 to 120 hours after transfection.

GREB1 = GREB1 expression in HepG2 cells after GREB1 siRNA or GREB1 ASO (cell lysates probed with anti-GREB1 antibody); format: cell-based, human; settings: siRNA 10 nm, lysate probing
Experimental: Phosphorothioated I5-mer antisense oligonucleotides (ASOs) containing AmNA monomers were prepared (synthesized by GeneDesign (Ibaraki, Japan)). In the present specification, “hGREB1-6424-AmNA (15)” is sometimes simply referred to as “ASO-6424” or “GREB1 ASO-6424”. Similar abbreviations are used for describing other ASOs. Using RNAiMAX (Invitrogen, Carlsbad, Calif., USA), HepG2 or COLO679 cells were transfected with 10 nM of ASOs. In experiments, the cells were used from 36 to 48 hours after transfection.
as §1
As reported previously, knockdown of β-catenin decreased HepG2 cell proliferation (see a of FIG. 3). […] Thus, to elucidate the role of GREB1 in HepG2 cells, knockdown of GREB1 was carried out using two different siRNAs.
Next, HepG2 cells were transfected with control ASO or each of the above-described GREB1 ASOs, cultured in a medium containing 10% FBS for 2 days, and the cell lysates were probed with anti-GREB1 antibody and anti-HSP90 antibody.

HepG2 cells [4] = assay: Cell viability by propidium iodide and Hoechst33342 staining; format: cell-based, human; settings: medium without Z-VAD, 0.1% FBS, 2 days; PI and Hoechst33342
Experimental: Further, HepG2 cells were transfected with control siRNA or siRNAs (GREB1 #1 siRNA and GREB1 #2 siRNA), cultured in media (caspase inhibitor Z-VAD was contained in one condition, and not contained in the other condition) containing 0.1% FBS for 2 days, stained with propidium iodide (PI, […]) and Hoechst33342 (nucleus), and the cell viability was evaluated.
Further, HepG2 cells transfected with control siRNA, GREB1 siRNA (GREB1 #2 siRNA), p15 siRNA, or siRNA of GREB1 (GREB1 #2 siRNA) and siRNA of p15 in combination were cultured in media (caspase inhibitor Z-VAD was contained in one condition, and not contained in the other condition) containing 0.1% FBS for 2 days, stained with propidium iodide (PI) and Hoechst33342, and the cell viability was calculated.

HepG2 cells [5] = assay: Cell proliferation assay, two-dimensional culture (plastic dish), Cyquant; format: cell-based, human
Experimental: Cells were seeded on a plate at 1.0×10^4 cells/mL, and, after 12 hours, the medium was replaced with a medium containing 10% serum. While the cell number was counted every 48 hours, the cells were cultured up to 10 days. The measurement of the cell number was performed using Cyquant NF assays (Life Technologies/Thermo Fisher Scientific) according to protocols recommended by the manufacturer.
Mock HepG2 cells (having a vector only, containing no GREB1) or GREB1-transduced HepG2 cells were transfected with control siRNA or two different types of siRNA (GREB1 #1 siRNA and GREB1 #2 siRNA), then two-dimensional culture (plastic dish culture) was performed, and a relative cell number was calculated by Cyquant assay overtime. As a result, in GREB1 knockdown, proliferative capacity of HepG2 cells in two-dimensional culture was reduced. However, when GREB1-transduced HepG2 cells were transfected with siRNAs against GREB1 (GREB1 #1 siRNA/GREB1 and GREB1 #2 siRNA/GREB1), the proliferative capacity of HepG2 cells was not affected (see a of FIG. 4).

liver tumors of BYM mice = assay: Tumorigenesis by HTVi (hydrodynamic tail vein injection), BYM mice with GREB1 shRNA; format: in vivo
Experimental: In the presence of Greb1 shRNA #3 (SEQ ID NO: 8) (20 μg) or control, and pLIVE-SB13 (8 μg), pT2BH-YAPS127A (20 μg), pT2BH-ΔN90 β-catenin-mutLuc3 (20 μg), pT3-EF1a-cMET (20 μg), and GFP2ALuc were diluted in 2.5 ml of physiological saline, and injected into tail veins of 8- to 9-week old male wild-type C57BL6/N mice within 5 to 7 seconds. Livers of the mice were collected at a predetermined time after injection (or at occurrence of the tumor), and various parameters associated with tumorigenesis were assessed. Specifically, this assessment was performed according to techniques described in Tao, J. et al., (2014). Gastroenterology 147, 690-701 and Tward, A. D. et al, (2007). Proc Natl Acad Sci USA 104, 14771-14776. In this evaluation, ΔN90 β-catenin refers to a β-catenin mutant in which amino acids at positions 1 to 90 of human ft-catenin were deleted, and YAPS127A refers to a YAP mutant in which serine at positon 127 of YAP was substituted by alanine.
Further, ΔN90 β-catenin, YapS127A, and c-Met were administered to mice together with GREB1 shRNA, and the livers were collected 7 to 8 weeks after administration. As a result, in mice transduced with ΔN90 β-catenin, YAPS127A, and c-Met (BYM mice, control), a plurality of nodules were observed on the entire surfaces of the livers (see a of FIG. 14). On the other hand, in mice transduced with GREB1 shRNA together with ΔN90 β-catenin, YAPS127A, and c-Met (BYM GREB1 KD mice), the nodules in the liver were suppressed (see a of FIG. 14).

[6] = CHIR99021 in the presence or absence of ICI-182,786
[7] = BYM+ GREB1 shRNA mouse vs BYM mouse without knockdown
[8] = tumor nodules of BYM GREB1 KD mice K2 and K4, real-time PCR

## Cc1c[nH]c(-c2cnc(NCCNc3ccc(C#N)cn3)nc2-c2ccc(Cl)cc2Cl)n1 [CHIR99021]
MCF7; [6]
  expression of Axin2: increased
  expression of GREB1: not increased
[1]
  expression of GREB1: increased
[2]
  expression of Axin2: increased
  expression of GREB1: not increased
Huh6 cells
  mRNA expression of GREB1: suppressed

## C[C@]12CC[C@@H]3c4ccc(O)cc4C[C@@H](CCCCCCCCC[S+]([O-])CCCC(F)(F)C(F)(F)F)[C@H]3[C@@H]1CC[C@@H]2O (stereo partly drawn) [ICI-182,786]
MCF7; ICI-182,786 treatment, real-time PCR
  expression of GREB1: dramatically decreased
MCF7; estrogen receptor antagonist treatment
  mRNA expression of PAI-1: suppresses
HepG2 cells [3]; HepG2 cells treated for 48 hours, real-time PCR
  expression level of GREB1 mRNA: not affected

## CN1C(=O)c2sccc2N(C)c2nc(Nc3ccc(S(N)(=O)=O)cc3)ncc21 [XMU-MP1]
Huh6 cells
  mRNA expression of GREB1: suppressed

## GREB1 #1 siRNA: siRNA against human GREB1; sense 5′-GCCAUUCGUGUGCUUCCAUTT-3′ (SEQ ID NO: 4), antisense SEQ ID NO: 5 (antisense AUGGAAGCACACGAAUGGCTT; sugars from the 5' end r19 d2, backbone not given here)
GREB1
  knockdown of GREB1 (anti-GREB1 antibody): knocked down
HepG2 cells [4]
  cell death of HepG2 cells: elevated cell death
HepG2 cells [3]; HepG2 cells, 0.1% FBS for 2 days, lysate probing
  amounts of cleaved caspase 3 and PARP1: increased
HepG2 cells [3]; HepG2 cells, GREB1 knockdown, lysate probing
  expressions of β-catenin and Axin2: no effect
HepG2 cells [3]; HepG2 cells, medium containing 1% FBS for 1 day, lysate probing
  expression of cell cycle regulators cyclinA, cyclinB, phosphorylated histone H3: decreases
HepG2 cells [5]; GREB1-transduced HepG2 cells
  proliferative capacity of HepG2 cells in two-dimensional culture: not affected
HepG2 cells [5]; mock HepG2 cells, relative cell number by Cyquant over time
  proliferative capacity of HepG2 cells in two-dimensional culture: reduced

## GREB1 shRNA: shRNA against mouse Greb1, encoding DNA SEQ ID NO: 8, given as pT2BH-GFP2ALuc plasmid by hydrodynamic injection (DNA CCGGCTACTTTGTTAGCAATGATATCTCGAGATATCATTGCTAACAAAGTAGTTTTTTG)
Liver tumors of BYM mice; BYM GREB1 KD mice K1 to K6
  incidence rate of tumorigenesis: decreased
  mice in which any tumor was not observed: 4 out of the 6
Liver tumors of BYM mice; BYM mice, livers collected 7 to 8 weeks after administration, shRNA plasmid 20 μg HTVi
  nodules in the liver: suppressed
Liver tumors of BYM mice; [7]
  serum AFP level: dramatically decreased
  weight of the liver: dramatically decreased
Liver tumors of BYM mice; [8]
  GREB1 mRNA expression levels in tumors: low
  expression levels of DLK1 and TACSTD1 in tumors: the same as those of the GREB1 low group of BYM mice
